According to ChEMBL document CHEMBL3390848, “Affinity selection and sequence-activity relationships of HIV-1 membrane fusion inhibitors directed at the drug-resistant variants” (Medchemcomm, 2010):
Residues, ends and D or L forms follow the SMILES beside them.

Key:
[1] = system: Human immunodeficiency virus 1; experiment: Thermal stability of HIV1 envelope glycoprotein gp41 His-tagged N-terminal heptad repeat N36-drug complex assessed as thermal unfolding transition state by measuring molar ellipticity at 4 to 90 degC by circular dichroic spectra analysis
[2] = system: Human immunodeficiency virus 1; experiment: Antiviral activity against HIV1 NL4-3 harboring gp41 D36G mutant infected in human HeLa cells expressing CD4-LTR-beta-gal assessed as inhibition of viral replication after 48 hrs by MAGI assay; format: functional, organism-based
[3] = system: Human immunodeficiency virus 1; experiment: Binding affinity to HIV1 His-tagged N-terminal heptad repeat of envelope glycoprotein gp41 assessed as recovery of N36-drug complex after 2 hrs by LC-MS analysis; design: concentration or dose not given beside the values

Compound	Tm [1] [°C]	EC50 [2] [nM]	Activity [3] [%]
CC[C@H](C)[C@H](NC(=O)[C@H](CC(C)C)NC(=O)[C@H](CCC(=O)O)NC(=O)[C@H](CCC(=O)O)NC(=O)[C@@H](NC(=O)[C@H](CCCCN)NC(=O)[C@H](CCCCN)NC(=O)[C@@H](NC(=O)[C@H](Cc1ccc(O)cc1)NC(=O)[C@H](CCC(=O)O)NC(=O)[C@H](CCC(=O)O)NC(=O)[C@@H](NC(=O)[C@H](CCCCN)NC(=O)[C@H](CCCCN)NC(=O)[C@H](CC(=O)O)NC(=O)[C@H](Cc1c[nH]c2ccccc12)NC(=O)[C@H](CCC(=O)O)NC(=O)[C@H](CCC(=O)O)NC(=O)[C@H](Cc1c[nH]c2ccccc12)NC(C)=O)[C@@H](C)CC)[C@@H](C)O)[C@@H](C)CC)C(=O)N[C@@H](CCCCN)C(=O)N[C@@H](CCCCN)C(=O)N[C@@H](CO)C(=O)N[C@@H](CCC(=O)O)C(=O)N[C@@H](CCC(=O)O)C(=O)N[C@@H](CCC(=O)O)C(=O)N[C@@H](CCC(N)=O)C(=O)N[C@@H](CCCCN)C(=O)N[C@@H](CCCCN)C(=O)N[C@@H](CC(N)=O)C(=O)N[C@@H](CCC(=O)O)C(=O)N[C@@H](CCC(=O)O)C(=O)N[C@@H](CCC(=O)O)C(=O)N[C@@H](CC(C)C)C(=O)N[C@@H](CCCCN)C(=O)N[C@@H](CCCCN)C(N)=O (Ac-WEEWDKKIEEYTKKIEELIKKSEEEQKKNEEELKK-NH2)	76.2	2.4	4.3
CC[C@H](C)[C@H](NC(=O)[C@H](CC(C)C)NC(=O)[C@H](CCC(=O)O)NC(=O)[C@H](CCC(=O)O)NC(=O)[C@@H](NC(=O)[C@H](CCCCN)NC(=O)[C@H](CCCCN)NC(=O)[C@@H](NC(=O)[C@H](Cc1ccc(O)cc1)NC(=O)[C@H](CCC(=O)O)NC(=O)[C@H](CCC(=O)O)NC(=O)[C@@H](NC(=O)[C@H](CCCCN)NC(=O)[C@H](CCCCN)NC(=O)[C@H](CC(=O)O)NC(=O)[C@H](Cc1c[nH]c2ccccc12)NC(=O)[C@H](CCC(=O)O)NC(=O)[C@H](CCC(=O)O)NC(=O)[C@H](Cc1c[nH]c2ccccc12)NC(C)=O)[C@@H](C)CC)[C@@H](C)O)[C@@H](C)CC)C(=O)N[C@@H](CCCCN)C(=O)N[C@@H](CCCCN)C(=O)N[C@@H](CO)C(=O)N[C@@H](CCC(=O)O)C(=O)N[C@@H](CCC(=O)O)C(=O)N[C@@H](Cc1ccccc1)C(=O)N[C@@H](CCC(N)=O)C(=O)N[C@@H](CCCCN)C(=O)N[C@@H](CCCCN)C(=O)N[C@@H](CC(N)=O)C(=O)N[C@@H](CCC(=O)O)C(=O)N[C@@H](CCC(=O)O)C(=O)N[C@@H](CCC(=O)O)C(=O)N[C@@H](CC(C)C)C(=O)N[C@@H](CCCCN)C(=O)N[C@@H](CCCCN)C(N)=O (Ac-WEEWDKKIEEYTKKIEELIKKSEEFQKKNEEELKK-NH2)	76.7	2.6	5.7
CC[C@H](C)[C@H](NC(=O)[C@H](CC(C)C)NC(=O)[C@H](CCC(=O)O)NC(=O)[C@H](CCC(=O)O)NC(=O)[C@@H](NC(=O)[C@H](CCCCN)NC(=O)[C@H](CCCCN)NC(=O)[C@@H](NC(=O)[C@H](Cc1ccc(O)cc1)NC(=O)[C@H](CCC(=O)O)NC(=O)[C@H](CCC(=O)O)NC(=O)[C@@H](NC(=O)[C@H](CCCCN)NC(=O)[C@H](CCCCN)NC(=O)[C@H](CC(=O)O)NC(=O)[C@H](Cc1c[nH]c2ccccc12)NC(=O)[C@H](CCC(=O)O)NC(=O)[C@H](CCC(=O)O)NC(=O)[C@H](Cc1c[nH]c2ccccc12)NC(C)=O)[C@@H](C)CC)[C@@H](C)O)[C@@H](C)CC)C(=O)N[C@@H](CCCCN)C(=O)N[C@@H](CCCCN)C(=O)N[C@@H](CO)C(=O)N[C@@H](CCC(=O)O)C(=O)N[C@@H](CCC(=O)O)C(=O)NCC(=O)N[C@@H](CCC(N)=O)C(=O)N[C@@H](CCCCN)C(=O)N[C@@H](CCCCN)C(=O)N[C@@H](CC(N)=O)C(=O)N[C@@H](CCC(=O)O)C(=O)N[C@@H](CCC(=O)O)C(=O)N[C@@H](CCC(=O)O)C(=O)N[C@@H](CC(C)C)C(=O)N[C@@H](CCCCN)C(=O)N[C@@H](CCCCN)C(N)=O (Ac-WEEWDKKIEEYTKKIEELIKKSEEGQKKNEEELKK-NH2)	71	2.3	3.8
CC[C@H](C)[C@H](NC(=O)[C@H](CC(C)C)NC(=O)[C@H](CCC(=O)O)NC(=O)[C@H](CCC(=O)O)NC(=O)[C@@H](NC(=O)[C@H](CCCCN)NC(=O)[C@H](CCCCN)NC(=O)[C@@H](NC(=O)[C@H](Cc1ccc(O)cc1)NC(=O)[C@H](CCC(=O)O)NC(=O)[C@H](CCC(=O)O)NC(=O)[C@@H](NC(=O)[C@H](CCCCN)NC(=O)[C@H](CCCCN)NC(=O)[C@H](CC(=O)O)NC(=O)[C@H](Cc1c[nH]c2ccccc12)NC(=O)[C@H](CCC(=O)O)NC(=O)[C@H](CCC(=O)O)NC(=O)[C@H](Cc1c[nH]c2ccccc12)NC(C)=O)[C@@H](C)CC)[C@@H](C)O)[C@@H](C)CC)C(=O)N[C@@H](CCCCN)C(=O)N[C@@H](CCCCN)C(=O)N[C@@H](CO)C(=O)N[C@@H](CCC(=O)O)C(=O)N[C@@H](CCC(=O)O)C(=O)N[C@@H](Cc1cnc[nH]1)C(=O)N[C@@H](CCC(N)=O)C(=O)N[C@@H](CCCCN)C(=O)N[C@@H](CCCCN)C(=O)N[C@@H](CC(N)=O)C(=O)N[C@@H](CCC(=O)O)C(=O)N[C@@H](CCC(=O)O)C(=O)N[C@@H](CCC(=O)O)C(=O)N[C@@H](CC(C)C)C(=O)N[C@@H](CCCCN)C(=O)N[C@@H](CCCCN)C(N)=O (Ac-WEEWDKKIEEYTKKIEELIKKSEEHQKKNEEELKK-NH2)	72.6	2	4.3
CC[C@H](C)[C@H](NC(=O)[C@H](CCC(=O)O)NC(=O)[C@H](CCC(=O)O)NC(=O)[C@H](CO)NC(=O)[C@H](CCCCN)NC(=O)[C@H](CCCCN)NC(=O)[C@@H](NC(=O)[C@H](CC(C)C)NC(=O)[C@H](CCC(=O)O)NC(=O)[C@H](CCC(=O)O)NC(=O)[C@@H](NC(=O)[C@H](CCCCN)NC(=O)[C@H](CCCCN)NC(=O)[C@@H](NC(=O)[C@H](Cc1ccc(O)cc1)NC(=O)[C@H](CCC(=O)O)NC(=O)[C@H](CCC(=O)O)NC(=O)[C@@H](NC(=O)[C@H](CCCCN)NC(=O)[C@H](CCCCN)NC(=O)[C@H](CC(=O)O)NC(=O)[C@H](Cc1c[nH]c2ccccc12)NC(=O)[C@H](CCC(=O)O)NC(=O)[C@H](CCC(=O)O)NC(=O)[C@H](Cc1c[nH]c2ccccc12)NC(C)=O)[C@@H](C)CC)[C@@H](C)O)[C@@H](C)CC)[C@@H](C)CC)C(=O)N[C@@H](CCC(N)=O)C(=O)N[C@@H](CCCCN)C(=O)N[C@@H](CCCCN)C(=O)N[C@@H](CC(N)=O)C(=O)N[C@@H](CCC(=O)O)C(=O)N[C@@H](CCC(=O)O)C(=O)N[C@@H](CCC(=O)O)C(=O)N[C@@H](CC(C)C)C(=O)N[C@@H](CCCCN)C(=O)N[C@@H](CCCCN)C(N)=O (Ac-WEEWDKKIEEYTKKIEELIKKSEEIQKKNEEELKK-NH2)	79.7	2.9	8.2
CC[C@H](C)[C@H](NC(=O)[C@H](CC(C)C)NC(=O)[C@H](CCC(=O)O)NC(=O)[C@H](CCC(=O)O)NC(=O)[C@@H](NC(=O)[C@H](CCCCN)NC(=O)[C@H](CCCCN)NC(=O)[C@@H](NC(=O)[C@H](Cc1ccc(O)cc1)NC(=O)[C@H](CCC(=O)O)NC(=O)[C@H](CCC(=O)O)NC(=O)[C@@H](NC(=O)[C@H](CCCCN)NC(=O)[C@H](CCCCN)NC(=O)[C@H](CC(=O)O)NC(=O)[C@H](Cc1c[nH]c2ccccc12)NC(=O)[C@H](CCC(=O)O)NC(=O)[C@H](CCC(=O)O)NC(=O)[C@H](Cc1c[nH]c2ccccc12)NC(C)=O)[C@@H](C)CC)[C@@H](C)O)[C@@H](C)CC)C(=O)N[C@@H](CCCCN)C(=O)N[C@@H](CCCCN)C(=O)N[C@@H](CO)C(=O)N[C@@H](CCC(=O)O)C(=O)N[C@@H](CCC(=O)O)C(=O)N[C@@H](CCCCN)C(=O)N[C@@H](CCC(N)=O)C(=O)N[C@@H](CCCCN)C(=O)N[C@@H](CCCCN)C(=O)N[C@@H](CC(N)=O)C(=O)N[C@@H](CCC(=O)O)C(=O)N[C@@H](CCC(=O)O)C(=O)N[C@@H](CCC(=O)O)C(=O)N[C@@H](CC(C)C)C(=O)N[C@@H](CCCCN)C(=O)N[C@@H](CCCCN)C(N)=O (Ac-WEEWDKKIEEYTKKIEELIKKSEEKQKKNEEELKK-NH2)	69.2	2.7	4.8
CC[C@H](C)[C@H](NC(=O)[C@H](CC(C)C)NC(=O)[C@H](CCC(=O)O)NC(=O)[C@H](CCC(=O)O)NC(=O)[C@@H](NC(=O)[C@H](CCCCN)NC(=O)[C@H](CCCCN)NC(=O)[C@@H](NC(=O)[C@H](Cc1ccc(O)cc1)NC(=O)[C@H](CCC(=O)O)NC(=O)[C@H](CCC(=O)O)NC(=O)[C@@H](NC(=O)[C@H](CCCCN)NC(=O)[C@H](CCCCN)NC(=O)[C@H](CC(=O)O)NC(=O)[C@H](Cc1c[nH]c2ccccc12)NC(=O)[C@H](CCC(=O)O)NC(=O)[C@H](CCC(=O)O)NC(=O)[C@H](Cc1c[nH]c2ccccc12)NC(C)=O)[C@@H](C)CC)[C@@H](C)O)[C@@H](C)CC)C(=O)N[C@@H](CCCCN)C(=O)N[C@@H](CCCCN)C(=O)N[C@@H](CO)C(=O)N[C@@H](CCC(=O)O)C(=O)N[C@@H](CCC(=O)O)C(=O)N[C@@H](CC(C)C)C(=O)N[C@@H](CCC(N)=O)C(=O)N[C@@H](CCCCN)C(=O)N[C@@H](CCCCN)C(=O)N[C@@H](CC(N)=O)C(=O)N[C@@H](CCC(=O)O)C(=O)N[C@@H](CCC(=O)O)C(=O)N[C@@H](CCC(=O)O)C(=O)N[C@@H](CC(C)C)C(=O)N[C@@H](CCCCN)C(=O)N[C@@H](CCCCN)C(N)=O (Ac-WEEWDKKIEEYTKKIEELIKKSEELQKKNEEELKK-NH2)	83.8	2.7	8.2
